Measured values: the NIST ThermoML archive (doi:10.1016/j.jct.2009.10.007)
± gives the expanded uncertainty stated by the source.

Experiment: refractive index (Na D-line) (dimensionless); mn = molality of the nth substance listed, in mol/kg
Details: 308.15 K, 101 kPa, Liquid, Standard Abbe refractometry

refractive index (m1 = 0.034) | refractive index (m1 = 0.0682) | refractive index (m1 = 0.1015) | refractive index (m1 = 0.1424) | refractive index (m1 = 0.1771) | refractive index (m1 = 0.2157) | refractive index (m1 = 0.2524) | refractive index (m1 = 0.2847) | refractive index (m1 = 0.3319) | refractive index (m1 = 0.3674) | refractive index (m2 = 0) | SMILES
1.3328 ± 0.0005 | 1.3345 ± 0.0005 | 1.3361 ± 0.0005 | 1.3379 ± 0.0005 | 1.3393 ± 0.0005 | 1.341 ± 0.0005 | 1.3425 ± 0.0005 | 1.3438 ± 0.0005 | 1.3456 ± 0.0005 | 1.3469 ± 0.0005 |  | O=C([O-])CC(O)(CC(=O)[O-])C(=O)[O-].[Na+].[Na+].[Na+] [trisodium citrate] + O
 |  |  |  |  |  |  |  |  |  | 1.3311 ± 0.0005 | O [water] + O=C([O-])CC(O)(CC(=O)[O-])C(=O)[O-].[Na+].[Na+].[Na+]
 |  |  |  |  |  |  |  |  |  | 1.3311 ± 0.0005 | O [water] + CCCCn1cc[n+](C)c1.[Br-]
